The target of assay [1] is T1, β-glucuronidase (Escherichia coli, UniProt P05804).
T1 construct: gene uidA
Nature of the assay: PNPG hydrolysis assay at […] nm with commercial enzyme; positive control. It counts as biochemical.

For assay [2], the target named is T1, β-glucuronidase. The assay can be described thus: PNPG hydrolysis assay at […] nm with commercial enzyme; Lineweaver-Burk and secondary plots (IC50 […]). Format: biochemical.

The values that follow come from paper PMC9705844, “Inhibitory Activity of 4-O-Benzoyl-3′-O-(OMethylsinapoyl) Sucrose from Polygala tenuifolia on Escherichia coli β-Glucuronidase” (Journal of Microbiology and Biotechnology, 2021).

A word on the IC50: it is the concentration that gives 50% inhibition. Read a high IC50 as weaker potency. For orientation: Ki means a dissociation constant, usually derived from enzyme kinetics or from competition with a known ligand. The low end stands for higher affinity, the high end for lower affinity.

T1 sequence (P05804 whole entry): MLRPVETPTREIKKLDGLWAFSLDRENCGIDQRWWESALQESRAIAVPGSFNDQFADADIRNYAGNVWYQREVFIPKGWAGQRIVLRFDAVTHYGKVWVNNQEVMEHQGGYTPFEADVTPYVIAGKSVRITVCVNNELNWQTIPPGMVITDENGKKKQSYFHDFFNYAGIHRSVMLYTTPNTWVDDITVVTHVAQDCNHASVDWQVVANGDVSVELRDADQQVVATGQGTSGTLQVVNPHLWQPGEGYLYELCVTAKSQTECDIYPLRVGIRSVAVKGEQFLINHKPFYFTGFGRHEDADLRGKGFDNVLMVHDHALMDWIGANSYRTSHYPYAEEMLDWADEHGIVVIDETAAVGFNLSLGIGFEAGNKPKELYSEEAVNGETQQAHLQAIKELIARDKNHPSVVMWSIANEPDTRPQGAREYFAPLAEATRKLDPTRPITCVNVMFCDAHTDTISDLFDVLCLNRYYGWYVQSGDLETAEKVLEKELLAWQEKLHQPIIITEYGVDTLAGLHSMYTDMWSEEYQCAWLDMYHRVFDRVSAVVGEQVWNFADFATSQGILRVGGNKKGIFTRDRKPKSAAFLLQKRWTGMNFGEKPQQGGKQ

The compound `O=C(O)[C@@H](O)[C@H]1OC(=O)[C@H](O)[C@H]1O` [DSA, D-saccharic acid 1,4-lactone] came in with an IC50 on β-glucuronidase [1] of 19.6 ± 2.4 µM.
On β-glucuronidase [2], `COc1cc(/C=C/C(=O)O[C@H]2[C@H](O)[C@@H](CO)O[C@@]2(CO)O[C@H]2O[C@H](CO)[C@@H](OC(=O)c3ccccc3)[C@H](O)[C@H]2O)cc(OC)c1OC` [compound 3, 4-O-Benzoyl-3′-O-(O-methylsinapoyl) sucrose] returned a Ki of 13.4 µM. In other words, the double-digit micromolar range.
